In PubChem BioAssay AID1259408 (Genetic Toxicology Data Bank (GENE-TOX), 2018):
Active and inactive are the calls of the source. The rule behind the calls is not given here.

Tested on: GENE-TOX genotoxicity assays, various organisms and cells
Experiment: GENE-TOX mutagenicity studies
Details: for call: Assay Type: In vivo carcinogenicity studies
[1] = Species/Cell Type: Drosophila melanogaster, Assay Type: Sex-linked recessive lethal gene mutation, Assay Code: SRL+, Evaluation Type: Evaluation A (Pre-1980)
[2] = Species/Cell Type: Nonhuman, Assay Type: Chromosome aberrations in vitro, Assay Code: CY&+, Evaluation Type: Evaluation A (Pre-1980)
[3] = Species/Cell Type: Nonhuman, Assay Code: CCGT, Evaluation Type: Evaluation A (Pre-1980)
[4] = Species/Cell Type: Chinese hamster lung (V79) cells, Assay Type: Forward gene mutation at the HPRT or ouabain locus, Assay Code: V79+, Evaluation Type: Evaluation A (Pre-1980)
[5] = Species/Cell Type: Syrian hamster embryo (SA7/SHE) cells, Assay Type: Cell transformation, viral enhanced, Assay Code: CT7+, Evaluation Type: Evaluation A (Pre-1980)
[6] = Species/Cell Type: Mammalian polychromatic erythrocytes, Assay Type: Micronucleus test, chromosome aberrations, Assay Code: MNTT, Evaluation Type: Evaluation B (Post-1980)
[7] = Species/Cell Type: Nonhuman, Assay Code: CCG+L, Evaluation Type: Evaluation A (Pre-1980)
[8] = Species/Cell Type: Salmonella typhimurium (one or more of the five standard strains: TA98, TA100, TA1535, TA1537, and TA1538), Assay Type: Histidine reverse gene mutation, Ames assay, Assay Code: SAL+, Evaluation Type: Evaluation A (Pre-1980)
[9] = Species/Cell Type: Escherichia coli polA (W3119 vs P3478), Assay Type: Rec-assay, DNA effects (bacterial DNA repair), Assay Code: RE1T, Evaluation Type: Evaluation A (Pre-1980)
[10] = Species/Cell Type: Drosophila melanogaster, Assay Type: Sex-linked recessive lethal gene mutation, Assay Code: SRLT, Evaluation Type: Evaluation A (Pre-1980)
[11] = Species/Cell Type: Saccharomyces cerevisiae, Assay Type: Mitotic recombination or gene conversion, Assay Code: YEH-, Evaluation Type: Evaluation A (Pre-1980)
[12] = Species/Cell Type: Salmonella typhimurium (one or more of the five standard strains: TA98, TA100, TA1535, TA1537, and TA1538), Assay Type: Histidine reverse gene mutation, Ames assay, Assay Code: SAL-, Evaluation Type: Evaluation A (Pre-1980)

In the case of `NCCc1c[nH]c2ccc(O)cc12` (tested in a mixture with another compound), the mutagenic call (Species/Cell Type: Drosophila melanogaster, Assay Type: Aneuploidy, whole sex chromosome loss, chromosome aberrations, Assay Code: DACTM, Evaluation Type: Evaluation A (Pre-1980)) is reported as “no conclusion” and the mutagenic call (Species/Cell Type: Drosophila melanogaster, Sex: Male, Assay Type: Heritable translocation test, chromosome aberrations, Assay Code: DHTT, Evaluation Type: Evaluation A (Pre-1980)) is reported as “no conclusion”.
For `CCN(CC)Cc1cc(Br)ccc1OCC(=O)N/N=C/c1ccc(O)c(OC)c1`, the mutagenic call (Species/Cell Type: Saccharomyces cerevisiae, Assay Type: Reverse gene mutation, Assay Code: YERT, Evaluation Type: Evaluation A (Pre-1980)) was “no conclusion”.
In the case of `COc1cc2c[n+](C)c3c4cc(OC)c(OC)cc4ccc3c2cc1OC`, the mutagenic call (Species/Cell Type: Salmonella typhimurium (one or more of the five standard strains: TA98, TA100, TA1535, TA1537, and TA1538), Assay Type: Histidine reverse gene mutation, Ames assay, Assay Code: SALT, Evaluation Type: Evaluation A (Pre-1980)) is reported as “no conclusion”.
`CS(=O)(=O)OCCCCO` was tested, and the mutagenic call [1] was “active; positive”.
With `O=P(N1CC1)(N1CC1)N1CC1` the mutagenic call [1] was “active; positive”, the mutagenic call (Species/Cell Type: Drosophila melanogaster, Sex: Male, Assay Type: Heritable translocation test, chromosome aberrations, Assay Code: DHT+, Evaluation Type: Evaluation A (Pre-1980)) was “active; positive” and the mutagenic call (Species/Cell Type: Human lymphocytes or leukocytes, Assay Type: Chromosome aberrations in vitro, Assay Code: CY7+, Evaluation Type: Evaluation A (Pre-1980)) was “active; positive”. For the same molecule, the mutagenic call (Species/Cell Type: Human lymphocytes, Assay Type: Sister-chromatid exchange (SCE) in vitro, Assay Code: SCL+D, Dose Response: With dose response, Evaluation Type: Evaluation B (Post-1980)) was “active; positive”, the mutagenic call (Species/Cell Type: Human, Assay Type: Sister-chromatid exchange (SCE) in vitro, Assay Code: SC1+D, Dose Response: With dose response, Evaluation Type: Evaluation B (Post-1980)) was “active; positive” and the mutagenic call (Species/Cell Type: Mammalian germ cells, Sex: Male, Assay Type: Chromosome aberrations in vivo, Assay Code: CY9T, Evaluation Type: Evaluation A (Pre-1980)) was “no conclusion”. The mutagenic call (Species/Cell Type: Mouse, Sex: Male, Assay Type: Heritable translocation test, chromosome aberrations, Assay Code: HTT+, Evaluation Type: Evaluation A (Pre-1980)) was “active; positive”, the mutagenic call (Species/Cell Type: Neurospora crassa, Assay Type: Forward gene mutation, Assay Code: NEF+, Evaluation Type: Evaluation A (Pre-1980)) was “active; positive” and the mutagenic call [2] was “active; positive”. For the same molecule, the call [3] was “no conclusion”, the mutagenic call (Species/Cell Type: Nonhuman, Assay Type: Sister-chromatid exchange (SCE) in vitro, Assay Code: SC2+D, Dose Response: With dose response, Evaluation Type: Evaluation B (Post-1980)) was “active; positive” and the mutagenic call (Species/Cell Type: Rodents, Sex: Male, Assay Type: Dominant lethal test, Assay Code: DLT+, Evaluation Type: Evaluation A (Pre-1980)) was “active; positive”. For the same molecule, the mutagenic call (Species/Cell Type: Schizosaccharomyces pombe, Assay Type: Reverse gene mutation, Assay Code: YEZ+, Evaluation Type: Evaluation A (Pre-1980)) was “active; positive” and the mutagenic call (Species/Cell Type: Vicia faba, Assay Type: Chromosome aberrations, Assay Code: VIC+, Evaluation Type: Evaluation A (Pre-1980)) was “active; positive”.
For `CC(=O)OC/N=[N+](/C)[O-]`, the mutagenic call [4] was “active; positive”, the mutagenic call [1] was “active; positive” and the mutagenic call (Species/Cell Type: Escherichia coli polA (W3119 vs P3478), Assay Type: Rec-assay, DNA effects (bacterial DNA repair), Assay Code: RE1+, Evaluation Type: Evaluation A (Pre-1980)) was “active; positive”. For the same molecule, the mutagenic call (Species/Cell Type: Fischer rat embryo (RLV/1706) cells, Assay Type: Cell transformation, viral enhanced, Assay Code: CTR+, Evaluation Type: Evaluation A (Pre-1980)) was “active; positive”, the mutagenic call (Species/Cell Type: Mouse (BALB/c-3T3) cells, Assay Type: Cell transformation, Assay Code: CTB+, Evaluation Type: Evaluation A (Pre-1980)) was “active; positive” and the mutagenic call (Species/Cell Type: Mouse, Sex: Male, Assay Type: Sperm morphology, Assay Code: SPI-, Evaluation Type: Evaluation A (Pre-1980)) was “inactive; negative”. For the same molecule, the call (Species/Cell Type: Nonhuman, Assay Code: CCG+, Evaluation Type: Evaluation A (Pre-1980)) was “active; positive”, the mutagenic call (Species/Cell Type: Nonhuman, Assay Type: Sister-chromatid exchange (SCE) in vitro, Assay Code: SC2+D, Dose Response: With dose response, Evaluation Type: Evaluation A (Pre-1980)) was “active; positive” and the mutagenic call (Species/Cell Type: Nonhuman, Assay Type: Sister-chromatid exchange (SCE) in vivo, Assay Code: SC3+, Evaluation Type: Evaluation B (Post-1980)) was “active; positive”. For the same molecule, the mutagenic call (Species/Cell Type: Saccharomyces cerevisiae, Assay Type: Mitotic recombination or gene conversion, Assay Code: YEH+, Evaluation Type: Evaluation A (Pre-1980)) was “active; positive”, the mutagenic call (Species/Cell Type: Salmonella typhimurium, Assay Type: Forward and reverse gene mutation, host-mediated assay, Assay Code: HMA+, Evaluation Type: Evaluation A (Pre-1980)) was “active; positive” and the mutagenic call [5] was “active; positive”. For the same molecule, the mutagenic call (Species/Cell Type: Syrian hamster embryo (SHE) cells, Assay Type: Cell transformation, clonal assay, Assay Code: CTC+, Evaluation Type: Evaluation A (Pre-1980)) was “active; positive”.
In the case of `CC1CN(N=O)CC(C)N1N=O` (configuration not stated), the mutagenic call (Species/Cell Type: Salmonella typhimurium (one or more of the five standard strains: TA98, TA100, TA1535, TA1537, and TA1538), Assay Type: Histidine reverse gene mutation, Ames assay, Assay Code: SAL+*, Activation: With metabolic activation, Evaluation Type: Evaluation A (Pre-1980)) is reported as “active; positive”.
With `O=C(Nc1ccc(Br)cc1)c1cc(Br)cc(Br)c1O` the mutagenic call [6] was “no conclusion”.
For `Cc1c2ccccc2c(C)c2c1cc(O)c1ccccc12`, the mutagenic call (Species/Cell Type: Chinese hamster lung (V79) cells, Assay Type: Forward gene mutation at the HPRT or ouabain locus, Assay Code: V79-*, Activation: With metabolic activation, Evaluation Type: Evaluation A (Pre-1980)) was “inactive; negative” and the call [3] was “no conclusion”.
`ClCCN(CCCl)c1ccc2ccccc2c1` was tested, and the mutagenic call [1] was “active; positive”, the call [7] was “active; positive” and the mutagenic call [8] was “active; positive”. For the same molecule, the mutagenic call [5] was “active; positive”.
In the case of `C[C@H]1O[C@@H](O[C@H]2[C@@H](O)C[C@H](O[C@H]3[C@@H](O)C[C@H](O[C@H]4CC[C@@]5(C)[C@H](CC[C@@H]6[C@@H]5C[C@@H](O)[C@]5(C)[C@@H](C7=CC(=O)OC7)CC[C@]65O)C4)O[C@@H]3C)O[C@@H]2C)C[C@H](O)[C@@H]1O`, the mutagenic call [9] is reported as “no conclusion”.
In the case of `[I][Hg][I]`, the mutagenic call (Species/Cell Type: Nonhuman, Assay Type: Sister-chromatid exchange (SCE) in vitro, Assay Code: SC2-, Evaluation Type: Evaluation B (Post-1980)) is reported as “inactive; negative”.
With `Cn1cc[nH]c1=S` the mutagenic call [6] was “no conclusion”.
`O=NN1CC=CCC1` was tested, and the mutagenic call (Species/Cell Type: Drosophila melanogaster, Assay Type: Aneuploidy, partial sex chromosome loss, chromosome aberrations, Assay Code: DAPT, Evaluation Type: Evaluation A (Pre-1980)) was “no conclusion”, the mutagenic call (Species/Cell Type: Drosophila melanogaster, Assay Type: Aneuploidy, whole sex chromosome loss, chromosome aberrations, Assay Code: DACT, Evaluation Type: Evaluation A (Pre-1980)) was “no conclusion” and the mutagenic call [1] was “active; positive”. For the same molecule, the mutagenic call [8] was “active; positive”.
For `ClC(Cl)=C(c1ccc(Cl)cc1)c1ccc(Cl)cc1`, the mutagenic call [4] was “active; positive”, the mutagenic call [10] was “no conclusion” and the mutagenic call [9] was “no conclusion”. For the same molecule, the mutagenic call (Species/Cell Type: Mouse lymphoma (L5178Y) cells, Assay Type: Forward gene mutation at the thymidine kinase (TK) locus, chromosome aberrations, Assay Code: L51+/-*, Activation: With metabolic activation, Evaluation Type: Evaluation A (Pre-1980)) was “inactive; positive without activation, negative with activation”, the mutagenic call [2] was “active; positive” and the call [7] was “active; positive”. For the same molecule, the mutagenic call [11] was “inactive; negative”, the mutagenic call [12] was “inactive; negative” and the mutagenic call (Species/Cell Type: Salmonella typhimurium, Serratia marcesens, Assay Type: Forward and reverse gene mutation, host-mediated assay, Assay Code: HM2-, Evaluation Type: Evaluation A (Pre-1980)) was “inactive; negative”.
`COc1cc([C@@H]2c3cc4c(cc3[C@H](O)[C@H]3COC(=O)[C@H]23)OCO4)cc(OC)c1OC` was tested, and the mutagenic call (Species/Cell Type: Chinese hamster ovary (CHO) cells, Assay Type: Forward gene mutation at the HPRT locus, Assay Code: CHOT, Evaluation Type: Evaluation B (Post-1980)) was “no conclusion”.
`Oc1c(Cl)c(Cl)c(Cl)c(Cl)c1Cl` was tested, and the mutagenic call (Species/Cell Type: Bacillus subtilis (H17 vs M45), Assay Type: Rec-assay, spot test, DNA effects (bacterial DNA repair), Assay Code: REW+, Evaluation Type: Evaluation A (Pre-1980)) was “active; positive”, the mutagenic call [10] was “no conclusion” and the mutagenic call (Species/Cell Type: Mouse, Sex: Female, Assay Type: Spot test, gene mutation, Assay Code: MST-, Evaluation Type: Evaluation A (Pre-1980)) was “inactive; negative”. For the same molecule, the mutagenic call (Species/Cell Type: Saccharomyces cerevisiae, Assay Type: Forward gene mutation, Assay Code: YEF+, Evaluation Type: Evaluation A (Pre-1980)) was “active; positive”, the mutagenic call (Species/Cell Type: Saccharomyces cerevisiae, Assay Type: Mitotic recombination or gene conversion, Assay Code: YEC+, Evaluation Type: Evaluation A (Pre-1980)) was “active; positive” and the mutagenic call [11] was “inactive; negative”. For the same molecule, the mutagenic call [12] was “inactive; negative”, the mutagenic call (Species/Cell Type: Salmonella typhimurium, Assay Type: Forward and reverse gene mutation, host-mediated assay, Assay Code: HMA-, Evaluation Type: Evaluation A (Pre-1980)) was “inactive; negative” and the mutagenic call [5] was “active; positive”.
`Nc1ccc(-c2ccc(N)cc2Cl)c(Cl)c1` was tested, and the mutagenic call (Species/Cell Type: Human diploid fibroblasts, Assay Type: Unscheduled DNA synthesis (UDS) in vitro, DNA effects, Assay Code: UDH+*, Activation: With metabolic activation, Evaluation Type: Evaluation A (Pre-1980)) was “active; positive”.
